From patent US11400088B2, “Uses of compound in preparation of drugs for treating brain glioma” (BEIJING PEARL BIOTECHNOLOGY LIMITED LIABILITY COMPANY, priority 2015, dated 2022) come the findings set out here.

Experiment [1] concerns human glioma cell line U87. Briefly: MTT inhibition of glioblastoma cell proliferation, U87 initial cells. The class given is cell-based. To be noted: 72 hours, read-out: Inhibitory activities (IC50, μM) of tested compounds on cells. On the procedure:
The compound represented by formula A and crizotinib as well as compounds represented by formulas B to H that respectively have a structure similar to the structure of formula A were employed to carry out the experiment of testing the activity of inhibiting glioblastoma cell proliferation.
(§1) The U87 cells were infected with any of the lentiviruses as prepared above and screened by applying puromycin (0.5 μg/mL for screening, and 0.2 μg/mL for maintenance) to establish cell models which stably expressed the fusion proteins. The cell models were verified for the expression of the fusion proteins and the transcription of the fusion genes by immunoblotting and reverse transcription PCR, and cell lines which stably expressed fusion proteins ZM1-2 and ZM2-2 respectively were obtained finally and named as “PCDH-ZM1-2 expressing cells” and “PCDH-ZM2-2 expressing cells” respectively. Similarly, U87 cells were infected with the lentivirus PCDH-blank with the blank vector to obtain “PCDH-blank expressing cells” as a blank reference.
(§2) Those U87 cells which were cultured in a large dish and were in a logarithmic stage were washed once with sterile PBS, and then digested with 0.25% trypsin for 2 min. After all cells were digested to detach, complete DMEM medium containing 10% fetal bovine serum (FBS) was used to stop the digestion. The cells were counted and the cell concentration was adjusted to 20,000 cells/ml. Then, the cells were seeded into a Corning 96-well plate (2,000 cells/well) using a multi-channel pipette, and incubated in a 5% CO2 incubator at 37° C. for 24 hours. The compounds to be tested (crizotinib and the compounds represented by formulas A to H) were respectively dissolved in DMSO to prepare stock solutions, and then the stock solutions and the complete medium were used to prepare solutions with different concentrations of medicaments (0, 5, 10, 20, 40, 60, 80, 100 μM). The cells were incubated in the incubator for additional 72 hours, and then 20 μl of 3-(4,5-dimethylthiazole-2)-2,5-diphenyl tetrazolium bromide (MTT) was added into each well. After 1-3 hours in the incubator, the absorbance at 490 nm was determined using a microplate reader. The inhibition rate corresponding to each concentration was calculated, and the value of IC50 was calculated with GraphPad software.

For experiment [2], the system named is PCDH-blank expressing cells (U87). Briefly: MTT inhibition of glioblastoma cell proliferation, blank reference cells. In kind it is cell-based. The following applies: Homo sapiens, U-87 MG, 72 hours, read-out: Inhibitory activities (IC50, μM) of tested compounds on cells.
Text: (§3) First, a lentiviral vector PCDH (PCDH-EF1-MCS-T2A-Puro, SBI, product No.: CD510B-1, structure shown in FIG. 4) was used, and the nucleotide sequence as shown by SEQ ID NO: 7 or SEQ ID NO: 8 was cloned into the vector according to the instructions thereof, to prepare expression vectors which expressed fusion proteins respectively represented by SEQ ID NO: 3 and SEQ ID NO: 4. The expression vectors were respectively named and marked as “PCDH-ZM1-2” and “PCDH-ZM2-2”. Then, a viral packaging plasmid (SBI, product No. LV500A-1) was used to co-infect 293T cells with one of the vectors to prepare a lentivirus. The same method was performed to package the lentiviral vector PCDH and co-infect 293T cells, to prepare a lentivirus with the blank vector, which was named as “PCDH-blank”.
as §1, §2

The subject of experiment [3] is PCDH-ZM1-2 expressing cells (U87). Briefly: MTT inhibition of glioblastoma cell proliferation, ZM1-2 fusion protein expressing cells. In kind it is cell-based. The following applies: Homo sapiens, 72 hours, read-out: Inhibitory activities (IC50, μM) of tested compounds on cells.
Text: as §3, §1, §2

The subject of experiment [4] is PCDH-ZM2-2 expressing cells (U87). Briefly: MTT inhibition of glioblastoma cell proliferation, ZM2-2 fusion protein expressing cells. The class given is cell-based. The following applies: Homo sapiens, 72 hours, read-out: Inhibitory activities (IC50, μM) of tested compounds on cells.
Text: as §3, §1, §2

Experiment [5] deals with PCDH-ZM2-2 expressing cells. Put plainly: Inhibition of subcutaneous tumor growth in ZM2-2 mice (1). The following applies: 10 mg/KG/day by gavage, vs normal saline, FIG. 5. The class given is in vivo, BALB/c (nu/nu) nude mice. On the procedure: First, a tumor-bearing mouse model was established. BALB/c (nu/nu) maternal nude mice, aged 6-8 weeks, with a weight of about 16-18 g were purchased from Vital River. “PCDH-blank expressing cells” and “PCDH-ZM2-2 expressing cells” prepared in Example 4 were prepared into suspensions of 10^7 cells/ml with PBS respectively. Nude mice sterilized with 75% ethanol were subcutaneously injected with 100 μl of the cell suspensions at the right scapular area, in which the PCDH-blank expressing cells were injected into seven nude mice, and PCDH-ZM2-2 expressing cells were injected into 21 nude mice. […] The tumor size and variations in mouse weight were measured twice a week. […]
When the tumors grew to have a volume of about 100 mm^3, the ZM2-2 mice (1) were divided into three groups according to mean tumor size, including a group of 7 mice which were administered with the compound represented by formula A, a group of 7 mice which were administered with crizotinib, and a control group of 7 mice. […] The tumor size and variations in mouse weight were measured twice a week. The tumor diameter was measured with a vernier caliper, and the equation for calculating tumor volume was: tumor volume=0.5*Length*Width^2.

In experiment [6] the test system is PCDH-ZM2-2 expressing cells. Put plainly: Intracranial tumor model, survival and brain MRI, ZM2-2 mice (2). In kind it is in vivo, nude mice. On the procedure:
(§4) First, a tumor-bearing mouse model was established. “PCDH-blank expressing cells” and “PCDH-ZM2-2 expressing cells” prepared in Example 4 were prepared into suspensions of 10^5 cells/5 μl with PBS respectively. Nude mice sterilized with 75% ethanol were inoculated with […] the cell suspensions. The cell inoculation position (2 mm away on the right side of anterior fontanel, and 2 mm backward) was determined using a brain stereotaxic apparatus for mouse; the injection depth was 3.5 mm and then elevated by 0.6 mm; and 5 μl of cell solutions respectively was injected to each mouse. After injection, the mice were kept still for 1 min, and then received a conventional skin closure. After intracranial tumors were observed, the tumor-bearing mice obtained with the “PCDH-blank expressing cells” were named as “vector mice (2)”, and the tumor-bearing mice obtained with the “PCDH-ZM2-2 expressing cells” were named as “ZM2-2 mice (2)”.
(§5) 8 Vector mice (2) and 8 ZM2-2 mice (2) were respectively administered with the compound represented by the formula A at a dose of 50 mg/KG weight/day. The compound was administrated once a day by gavage. At the same time, another group of 8 ZM2-2 mice (2) were given with normal saline, as a control group. The experiment lasted for over 6 weeks.
The brains of ZM2-2 mice (2) given with the compound represented by formula A were detected by nuclear magnetic resonance imaging on the 16th day after the compound represented by formula A was administered for the first time. […] See results in panel 7C.
Another 8 ZM2-2 mice (2) were also administered with the compound represented by formula A at a dose of 50 mg/KG weight/day. The compound was administrated once a day by gavage. Then, the compound administration was stopped on the 16th day after the first administration, and the brains were detected through nuclear magnetic resonance imaging on the 10th day after the compound withdrawal. […] Results are shown in panel 7D.

Experiment [7] has as its system PCDH-blank expressing cells. Briefly: Intracranial tumor model, survival, vector mice (2). The following applies: 50 mg/KG weight/day by gavage, over 6 weeks, FIG. 6. In kind it is in vivo, nude mice. The protocol: as §4, §5

`C[C@@H](Oc1cc(-c2cnn(C3CCNCC3)c2)cnc1N)c1c(Cl)ccc(F)c1Cl` [Crizotinib]: the IC50 (as a rule, the midpoint of a concentration-inhibition curve) amounted to 2.99 µM in experiment [1], 3.27 µM in experiment [2], 8.26 µM in experiment [3] and 9.76 µM in experiment [4].
For the compound `Cn1cc2cc(C(F)(F)c3nnc4ccc(-c5cnn(C6CC6)c5)nn34)c(F)cc2n1` [Formula A], the IC50 in experiment [1] was found to be 3.51 µM; in experiment [2], 2.85 µM; in experiment [3], 1.34 µM; in experiment [4] it was 1.83 µM. The “growth of tumors (tumor volume)” value in experiment [5] was “significantly inhibit the growth of tumors”. Also, in experiment [6] (50 mg/KG weight/day stopped on 16th day, imaged 10th day after withdrawal, panel 7D), the “intracranial tumor growth after compound withdrawal by nuclear magnetic resonance imaging” value is recorded as “resumed rapid growth”. In addition, the “intracranial tumor size by nuclear magnetic resonance imaging” value in experiment [6] (50 mg/KG weight/day, 16th day after first administration, panel 7C) was “obviously became smaller”. Moreover, in experiment [6] (intracranial, 50 mg/KG weight/day by gavage, over 6 weeks, FIG. 6), the “survival time of mice” value is on record as “obviously prolonged the survival time”. Further, the survival of mice entry in experiment [7] is “all survived”.
`CNC(=O)c1c(F)cc(-c2ccc3nnc(C(F)(F)c4cc5cn(C)nc5cc4F)n3n2)cc1F` [Formula B]: the IC50 in experiment [1] came out at 8.15 µM; in experiment [2] it was 6.02 µM; in experiment [3], 7.63 µM; in experiment [4], 5.59 µM.
For `Cn1cc2cc(C(F)(F)c3nnc4ccc(-c5ccc(NC(=O)C6CC6)c(F)c5)nn34)c(F)cc2n1` [Formula C], in that order: 4.78 µM, 5.79 µM, 9.45 µM and 12.8 µM.
For the compound `Cn1cc(-c2ccc3nnc(C(F)(F)c4cc5cn(C)nc5cc4F)n3n2)cn1` [Formula D], the IC50 was found to be 5.56 µM in experiment [1], 4.93 µM in experiment [2], 5.22 µM in experiment [3] and 7.21 µM in experiment [4].
Take `CC(C)n1cc(-c2ccc3nnc(C(F)(F)c4cc5cn(C)nc5cc4F)n3n2)cn1` [Formula E]: the IC50 in experiment [1] was 17.2 µM; in experiment [2], 21.6 µM; in experiment [3] it was 32.6 µM; in experiment [4] it was 21.9 µM.
For `Cn1cc2cc(C(F)(F)c3nnc4ccc(-c5cnn(C6CC6)c5)cn34)c(F)cc2n1` [Formula F], in that order: 64.4 µM, 58.8 µM, 90.3 µM and 125 µM.
Regarding `Cn1cc2cc(C(F)(F)c3nnc4ncc(-c5cnn(C6CC6)c5)cn34)c(F)cc2n1` [Formula G], the IC50 came to 9.07 µM in experiment [1], 9.25 µM in experiment [2], 6.75 µM in experiment [3] and 15.2 µM in experiment [4].
`Nc1nc2cc(F)c(Cc3nnc4ccc(-c5cnn(C6CC6)c5)nn34)cc2s1` [Formula H]: the IC50 came out at 25.4 µM in experiment [1], 19.4 µM in experiment [2], 23.3 µM in experiment [3] and 45.1 µM in experiment [4].
